Data published in patent publication US20240409530A1, “Disubstituted Pyrimidine Compounds for Ketohexokinase Inhibition” (Centennial Therapeutics, LLC, priority 2023, published 2024).

Assays:
Human recombinant KHK-C = Human recombinant KHK-C (Homo sapiens (Human), UniProt P50053); test: KHK inhibition assay, recombinant isozyme (coupled pyruvate kinase/LDH, NADH absorbance 340 nm); format: biochemical; settings: recombinant isozyme 6 nM, fructose 2 mM, ATP 0.1 mM
Procedure: (§1) Determination of Human and Rat recombinant KHK-A and KHK-C isozyme IC50 Values
(§2) An assay reagent cocktail was prepared by combining NADH, water, TEA, KCl, MgCl2, PEP, ATP, DTT, coupling enzymes (pyruvate kinase and lactate dehydrogenase, LDH) to final concentrations as shown in Table B.
(§3) To this was added the relevant KHK isozyme to a final concentration of 6 nM. Aliquots of each inhibitor compound were diluted via 5-fold serial dilutions to produce final concentrations ranging from 1000 nM to 0.064 nM. The inhibitor aliquots were added to the assay reagent cocktail containing KHK with fructose (at a concentration of 2 mM) in a 96-well plate. The absorbance at 340 nm was measured via spectrophotometry and inhibition was analyzed using non-linear regression.

Rat recombinant KHK-C = Rat recombinant KHK-C (Rattus norvegicus (Rat), UniProt Q02974); test: as above; format: biochemical; settings: recombinant isozyme 6 nM, fructose 2 mM, ATP 0.1 mM
Chain of Rat recombinant KHK-C (Q02974 whole entry): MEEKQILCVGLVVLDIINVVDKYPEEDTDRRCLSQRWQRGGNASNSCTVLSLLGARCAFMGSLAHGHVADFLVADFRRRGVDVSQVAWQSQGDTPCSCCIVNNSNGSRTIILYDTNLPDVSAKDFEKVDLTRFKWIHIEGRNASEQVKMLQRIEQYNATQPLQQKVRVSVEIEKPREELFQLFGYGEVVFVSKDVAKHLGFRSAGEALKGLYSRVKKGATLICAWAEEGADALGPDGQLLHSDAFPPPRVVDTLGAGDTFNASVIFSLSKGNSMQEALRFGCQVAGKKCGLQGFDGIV
Procedure: as §1, §2, §3

Rat recombinant KHK-A = Rat recombinant KHK-A (Rattus norvegicus (Rat), UniProt Q02974); test: as above; format: biochemical; settings: recombinant isozyme 6 nM, fructose 2 mM, ATP 0.1 mM
Chain of Rat recombinant KHK-A (Q02974 other isoform, or with tags, fused parts or gaps): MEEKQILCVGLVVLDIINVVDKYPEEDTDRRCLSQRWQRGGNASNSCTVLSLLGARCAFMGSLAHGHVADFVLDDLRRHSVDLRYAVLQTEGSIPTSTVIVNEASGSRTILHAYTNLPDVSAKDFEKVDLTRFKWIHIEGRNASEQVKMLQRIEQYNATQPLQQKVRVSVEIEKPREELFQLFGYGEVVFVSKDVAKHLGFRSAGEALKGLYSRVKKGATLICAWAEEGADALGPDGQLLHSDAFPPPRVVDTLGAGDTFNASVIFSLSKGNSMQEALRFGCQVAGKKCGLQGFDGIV
Procedure: as §1, §2, §3

Human recombinant KHK-A = Human recombinant KHK-A (Homo sapiens (Human), UniProt P50053); test: as above; format: biochemical; settings: recombinant isozyme 6 nM, fructose 2 mM, ATP 0.1 mM
Chain of Human recombinant KHK-A (P50053 other isoform, or with tags, fused parts or gaps): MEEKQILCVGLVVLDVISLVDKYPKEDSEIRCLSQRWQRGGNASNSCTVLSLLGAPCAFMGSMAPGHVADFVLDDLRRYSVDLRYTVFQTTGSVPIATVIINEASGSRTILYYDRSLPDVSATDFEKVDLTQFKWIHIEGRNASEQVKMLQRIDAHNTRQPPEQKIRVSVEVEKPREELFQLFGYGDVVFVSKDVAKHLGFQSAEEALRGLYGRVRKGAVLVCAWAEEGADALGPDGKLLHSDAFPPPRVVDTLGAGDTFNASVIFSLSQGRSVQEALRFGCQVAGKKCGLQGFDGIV
Procedure: as §1, §2, §3

human KHK in HepG2 Cells = human KHK in HepG2 Cells (Homo sapiens (Human), UniProt P50053); test: Cell-based potency assay (HepG2 assay), F1P by LC/MS; settings: fructose 20 mM, 20 min, F1P produced
Chain of human KHK in HepG2 Cells (P50053 whole entry): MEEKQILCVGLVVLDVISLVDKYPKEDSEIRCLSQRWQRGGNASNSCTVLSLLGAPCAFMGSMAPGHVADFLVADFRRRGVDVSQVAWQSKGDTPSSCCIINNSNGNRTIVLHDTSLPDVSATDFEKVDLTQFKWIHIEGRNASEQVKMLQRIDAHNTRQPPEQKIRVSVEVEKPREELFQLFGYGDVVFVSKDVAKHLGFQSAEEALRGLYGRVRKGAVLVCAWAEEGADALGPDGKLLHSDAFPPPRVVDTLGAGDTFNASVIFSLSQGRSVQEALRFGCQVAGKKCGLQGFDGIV
Procedure: Testing inhibition effect of compounds against human KHK in HepG2 Cells
(§4) HepG2 cells were grown in RPMI1640 supplemented media on 100 mm plates to near confluency (about 5-8×10^6 cells). The growth media was aspirated and 4 mL trypsin solution (0.25% (w/v)+0.25% (w/v) EDTA) was added, followed by incubation at 37° C. for 5-10 mins. The cells were pelleted and resuspended in 2 mL complete media.
The cells were then placed in a 96 well plate at 20,000-50,000 cells per well and grown for 20-28 hours at 37° C. to allow adherence.
Inhibitor compounds were diluted in DMSO to 50 μM, then serially diluted with MEM media (ThermoFisher). Final inhibitor concentration ranged from 1000 nM to 0.064 nM (5-fold dilution series).
The RPMI medium was removed from the plate of confluent cells. The plate was then incubated for 35 min at 37°, after which were added 0.1 mL of the diluted inhibitor compounds in MEM with fructose, 0.1 mL of MEM media without inhibitor compound or fructose, or trypsin; yielding a final concentration of fructose at 20 mM. The plate was subsequently incubated for 20 min at 37°, then placed on ice to stop the reactions.
Next, 200 μL of cold 80% (v/v) methanol:water was added to all wells, except the controls used to enumerate cell count. The plate was vortexed and cell debris removed by centrifugation. To measure F1P produced, the resulting supernatant fraction was analyzed by LC/MS.

[1] = molecular target: human KHK-C in engineered HepG2 cells (Homo sapiens (Human), UniProt P50053); test: Cell-based potency assay (KHK-C-overexpressing HepG2 assay), F1P by LC/MS; settings: fructose 30 mM, 5 min, F1P produced, geomean
Chain of human KHK-C in engineered HepG2 cells (P50053 whole entry, stated change not applied): as the sequence (P50053 whole entry) above
Procedure: Testing inhibition effect of compounds against human KHK-C in engineered HepG2 cells.
Engineered HepG2 cells were generated using methods known to those of skill in the art. Briefly, HepG2 cells were incubated with lentivirus carrying a transgene encoding human KHK-C, and grown under antibiotic selection.
as §4, with “KHK-C-overexpressing HepG2” for “HepG2”, “T-182 cm^2 flask” for “100 mm plates”, “25-40×10^6” for “5-8×10^6”, “aspirated, the flask was washed with 10 mL PBS,” for “aspirated”, “3-5” for “5-10”
The cells were then placed in a 96-well plate at 20,000-40,000 cells per well and grown for 20-28 hours at 37° C. to allow adherence.
Inhibitor compounds were diluted in DMSO to 50 μM, then serially diluted with MEM media (ThermoFisher). Final inhibitor concentration ranged from 5000 nM to 0.32 nM.
The RPMI medium was removed from the plate of confluent cells. The plate was then incubated for 35 min at 37° C. with 0.1 mL of the diluted inhibitor compounds in MEM. After, an additional 0.1 mL of the diluted inhibitor compounds in MEM with fructose, or 0.1 mL of MEM media without inhibitor compound and/or fructose; yielding a final concentration of fructose at 30 mM was added. The plate was subsequently incubated for 5 min at 37° C., then placed on ice to stop the reactions.
Next 200 μL of cold 80% (v/v) methanol:water was added to al wells and placed in the −80° C. freezer for 1 hour with an adhesive seal. The plate was vortexed and cell debris removed by centrifugation. To measure F1P produced, the resulting supernatant fraction was analyzed by LC/MS.

Chain of Human recombinant KHK-C (P50053 whole entry): as above

| SMILES | IC50 (Human recombinant KHK-C) [nM] | IC50 (Rat recombinant KHK-C) [nM] | IC50 (Rat recombinant KHK-A) [nM] | IC50 (Human recombinant KHK-A) [nM] | IC50 (human KHK in HepG2 Cells) [nM] | IC50 [1] [nM] |
| --- | --- | --- | --- | --- | --- | --- |
| Cc1c(-c2cnn(C3CN(C)C3)c2)nc(N2C[C@@H](O)[C@@H]2C)nc1C(F)(F)F [Compound A12, (2S,3R)-2-methyl-1-{5-methyl-4-[1-(1-methyl-3-azetidinyl)-4-pyrazolyl]-6-(trifluoromethyl)-2-pyrimidinyl}-3-azetidinol] | 1.05 | 3.3 | 1.3 | 4.1 | 1 | 33.5 |
| CCc1c(-c2cnn(CC(=O)N3CCNCC3)c2)nc(N2CC[C@@H]2C)nc1C(F)(F)F [Compound A6, 2-(4-{2-[(S)-2-methyl-1-azetidinyl]-5-ethyl-6-(trifluoromethyl)-4-pyrimidinyl}-1-pyrazolyl)-1-(1-piperazinyl)-1-ethanone] | 15.7 | 11 | 2.3 | 8.8 | 70 | – |
| Cc1c(-c2cnn(CC(=O)N3CCNCC3)c2)nc(N2CC[C@@H]2C(F)(F)F)nc1C(F)F [Compound A18, 2-(4-{2-[(R)-2-(trifluoromethyl)-1-azetidinyl]-6-(difluoromethyl)-5-methyl-4-pyrimidinyl}-1-pyrazolyl)-1-(1-piperazinyl)-1-ethanone] | 7.42 | 9.5 | 4.1 | 5.3 | 11 | – |
| C[C@H]1[C@H](O)CN1c1nc(-c2cnn(C3CN(C)C3)c2)cc(C(F)(F)F)n1 [Compound C3, reference compound] | – | – | – | – | 4 | 191 |
| COc1c(-c2cnn(C3CN(C)C3)c2)nc(N2C[C@@H](O)[C@@H]2C)nc1C(F)F [Compound A19, (2S,3R)-1-{6-(difluoromethyl)-5-methoxy-4-[1-(1-methyl-3-azetidinyl)-4-pyrazolyl]-2-pyrimidinyl}-2-methyl-3-azetidinol] | 10.6 | 17 | 6.6 | 27 | 23 | – |
| CCc1c(-c2cnn(C3CN(C)C3)c2)nc(N2C[C@@H](O)[C@@H]2C)nc1C(F)(F)F [Compound A11, (2S,3R)-1-{5-ethyl-4-[1-(1-methyl-3-azetidinyl)-4-pyrazolyl]-6-(trifluoromethyl)-2-pyrimidinyl}-2-methyl-3-azetidinol] | 2.09 | 2.1 | 0.96 | 8.5 | 4 | – |
| O=C(Cn1cc(-c2nc(N3CC[C@@H]3C(F)F)nc(C(F)(F)F)c2Cl)cn1)N1CCNCC1 [Compound A38, 2-(4-{2-[(R)-2-(difluoromethyl)-1-azetidinyl]-5-chloro-6-(trifluoromethyl)-4-pyrimidinyl}-1-pyrazolyl)-1-(1-piperazinyl)-1-ethanone] | 3.64 | 14 | 7.3 | 6.5 | 36 | – |
| C[C@H]1CCN1c1nc(-c2cnn(CC(=O)N3CCNCC3)c2)cc(C(F)(F)F)n1 [Compound C2, reference compound] | – | – | – | – | 91 | 457 |
| C[C@H]1[C@H](O)CN1c1nc(-c2cnn(C3CN(C)C3)c2)c(F)c(C(F)(F)F)n1 [Compound A27, (2S,3R)-1-{5-fluoro-4-[1-(1-methyl-3-azetidinyl)-4-pyrazolyl]-6-(trifluoromethyl)-2-pyrimidinyl}-2-methyl-3-azetidinol] | 4.09 | – | – | – | 9 | – |
| Cc1c(-c2cnn(CC(=O)N3CCNCC3)c2)nc(N2CC[C@@H]2C)nc1C(F)F [Compound A24, 2-(4-{2-[(S)-2-methyl-1-azetidinyl]-6-(difluoromethyl)-5-methyl-4-pyrimidinyl}-1-pyrazolyl)-1-(1-piperazinyl)-1-ethanone] | 14.7 | 17 | 5.2 | 31 | 28 | – |
| C[C@H]1[C@H](O)CN1c1nc(-c2cnn(C3CN(C)C3)c2)cc(C(F)F)n1 [Compound A9, (2S,3R)-1-{6-(difluoromethyl)-4-[1-(1-methyl-3-azetidinyl)-4-pyrazolyl]-2-pyrimidinyl}-2-methyl-3-azetidinol] | 40.5 | 37 | 10 | 22 | – | 184 |
| Cc1c(-c2cnn(CC(=O)N3CCNCC3)c2)nc(N2CC[C@@H]2C(F)(F)F)nc1C(F)(F)F [Compound A1, 2-(4-{2-[(R)-2-(trifluoromethyl)-1-azetidinyl]-5-methyl-6-(trifluoromethyl)-4-pyrimidinyl}-1-pyrazolyl)-1-(1-piperazinyl)-1-ethanone] | 4.06 | 9 | 2.2 | 6 | 7 | – |
| Cc1c(-c2cnn(CC(=O)N3CCNCC3)c2)nc(N2CC[C@@H]2C(F)F)nc1C(F)F [Compound A42, 2-(4-{2-[(R)-2-(difluoromethyl)-1-azetidinyl]-6-(difluoromethyl)-5-methyl-4-pyrimidinyl}-1-pyrazolyl)-1-(1-piperazinyl)-1-ethanone] | 18.3 | 26 | 10 | 13 | 43 | – |
| O=C(Cn1cc(-c2cc(C(F)(F)F)nc(N3CC[C@@H]3C(F)(F)F)n2)cn1)N1CCNCC1 [Compound A2, 2-(4-{2-[(R)-2-(trifluoromethyl)-1-azetidinyl]-6-(trifluoromethyl)-4-pyrimidinyl}-1-pyrazolyl)-1-(1-piperazinyl)-1-ethanone] | 31 | 26 | 9 | 13.5 | 48 | – |
| CCc1c(-c2cnn(CC(=O)N3CCNCC3)c2)nc(N2CC[C@@H]2C)nc1C(F)F [Compound A26, 2-(4-{2-[(S)-2-methyl-1-azetidinyl]-6-(difluoromethyl)-5-ethyl-4-pyrimidinyl}-1-pyrazolyl)-1-(1-piperazinyl)-1-ethanone] | 32.9 | 26 | 5.2 | 13 | – | – |
| Cc1c(-c2cnn(CC(=O)N3CCNCC3)c2)nc(N2CC[C@@H]2C(F)F)nc1C(F)(F)F [Compound A43, 2-(4-{2-[(R)-2-(difluoromethyl)-1-azetidinyl]-5-methyl-6-(trifluoromethyl)-4-pyrimidinyl}-1-pyrazolyl)-1-(1-piperazinyl)-1-ethanone] | 8.03 | 12 | 6.8 | 4.5 | 23 | – |
| C[C@H]1CCN1c1nc(-c2cnn(CC(=O)N3CCNCC3)c2)cc(C(F)F)n1 [Compound A7, 2-(4-{2-[(S)-2-methyl-1-azetidinyl]-6-(difluoromethyl)-4-pyrimidinyl}-1-pyrazolyl)-1-(1-piperazinyl)-1-ethanone] | 231 | 120 | 46 | 160 | 332 | – |
